The values below are quoted from earlier work in patent US20110223150A1, “Neutraceutical-Based Topical Anxiolytic Agent and Method of Use” (priority 2009, published 2011).

Read-outs that look alike come from different tables or passages of the source. Where only a bound is given, the exact number is not on record here.

The subject of data set [1] is spontaneously hypertensive rats (SHR). The settings on record: dose-dependent.
In data set [2] the test system is rats.
The subject of data set [3] is rats. As to conditions: chronic administration of 50 mg/kg.
The subject of another data set is mice. As to conditions: i.p. in mice.

For “gamma-ethylamino-L-glutamic acid [L-theanine]”, in data set [1], the blood pressure effect entry is listed as “blood pressure lowering effect”. Moreover, the “time until alpha waves were observed (occipital and parietal regions)” value in the data set with alpha brain waves (50 or 200 mg of L-theanine) was at most 40 min. Also, in the data set on alpha brain waves (after ingestion), the “time to sense of relaxation after ingestion” value is 30 to 40 min. Besides, in the data set with alpha brain waves (separate study, dose dependent, 200 mg significant over controls), the “time after which intensity of alpha waves was detectable” value was 30 min.
As for `NC(=O)CC[C@H](N)C(=O)O` [L-glutamine], the blood pressure effect entry in data set [1] is listed as “did not exhibit an anti-hypertensive effect”.
The term LD50 denotes the dose at which mortality reaches 50%. Take `NCC(CC(=O)O)c1ccccc1` (stereo not drawn) [Phenibut, beta-phenyl-gamma-aminobutyric acid]: the LD50 is 700 mg/kg in the data set on rats [2] (i.p. in rats); 1000 mg/kg with rats [2] (rats, method of administration not given); 900 mg/kg in the data set on mice. For the same compound, the teratogenic effects result in the data set on rats [3] is on record as “did not have teratogenic effects”.
